Test results taken from patent US10870647B2, “Imidazopyridine derivative, method for preparing same, and pharmaceutical composition containing same as active ingredient for preventing or treating cancer” (DAEGU-GYEONGBUK MEDICAL INNOVATION FOUNDATION, priority 2016, dated 2020).
Like-named read-outs stand apart in the source and are kept apart here.

Legend:
Type in all cases: cell-based
[1] = system: MDA-MB-231; experiment: Real time cell proliferation, IncuCyte ZOOM, 72 hours; settings: Homo sapiens, MDA-MB-231, 72 h
[2] = system: A375; experiment: Cancer cell proliferation inhibition, CCK-8, 72 hours
In short: (§1)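 A375 cells (2×10^3/well) attached overnight, then received 9 three-fold dilutions (0.0015-10 μM). K562 and Ba/F3-T315I (1×10^4/well) were given 9-point series (3-fold and 5-fold respectively), final 0-10 μM. After 72 h at 37°C, CCK-8 was added for 2 h; blank-subtracted OD450 gave IC50.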

[3] = molecular target: T1, T315I (Ba/F3) (Homo sapiens, UniProt P00519, T315I, cells depend on it); experiment: as above; settings: read-out: T315I (Ba/F3) IC50
T1 construct: fused on or other part: P11274 (Breakpoint cluster region protein)
In short: as §1

[4] = system: K562; experiment: as above
In short: as §1

[5] = system: Huh7; experiment: Cancer cell proliferation inhibition, MTS assay, 72 hours; settings: Homo sapiens, Huh-7
In short: (§2)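 Cells seeded at 3,000/well were cultured 24 h, then exposed 72 h to serially diluted compound from 50 μM top (0.05% DMSO). Viability was read by MTS/PMS at OD450 after 2 h at 37°C. IC50 was taken as 50% proliferation inhibition versus solvent control, from three data sets.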

[6] = system: FYN (MCP-1); experiment: as above
In short: as §2

[7] = system: M-NFS-60; experiment: Cancer cell proliferation inhibition, CCK-8, 72 hours
Procedure: MTS assay was performed to evaluate the cancer cell proliferation inhibition (cancer cell apoptosis) effect of the compounds of examples of the present invention. Particularly, the assay was performed using the cancer cell lines GIST-T1, GIST-T1/816, GIST-430, GIST-430/654, GIST-R1, GIST-R3, M-NFS-60, RetParental (Ba/F3), Retwt (Ba/F3), RetV804M (Ba/F3), RET (LC2/ad-CDC6), FYN (MCP-1), FYN (FN), MDA-MB-231, Huh7, K562, T315I(Ba/F3), SK-MEL-28 and A375. Cell culture was performed using a medium suitable for each cell line.
M-NFS-60 cell line was cultured in the complete growth medium prepared by adding 10% FBS, 0.05 mM 2-mercaptoethanol and 62 ng of human M-CSF to RPMI. When the confluence reached 80% in T-75 flask, the cells were collected in a 50 ml tube for seeding, followed by centrifugation at 800 rpm for 5 minutes. The cells were suspended in 10 mL of growth medium. The cell number was counted by using a hematocytometer to determine the necessary cell number and the medium volume for seeding. The cells were seeded in a 96-well plate at the density of 20000 cells/well (200 μL/well), followed by stabilization in a 37° C. CO2 incubator, while the compounds of the present invention were prepared. The compounds of the present invention were serially diluted with DMSO at the ratio of 1/3 with setting the maximum concentration at 1968 nM, which were loaded in a new V-bottom 96-well plate, resulting in the preparation of total 11 concentrations including the DMSO control. The cells that had been placed in the incubator were taken out, to which the compounds of the present invention were added (2 μl/well). The plate treated with the compounds was cultured in a 37° C. CO2 incubator for 72 hours. 72 hours later, the plate treated with the compounds was taken out, to which CCK-8 solution was treated (20 μl/well). After well mixing, the plate was further cultured in a 37° C. CO2 incubator for 2 hours. Then, OD450 was measured by using a microplate reader. To obtain accurate results, the wells displaying bubbles were eliminated from the measurement.

[8] = system: SK-MEL-28; experiment: Cancer cell proliferation inhibition, MTS assay, 72 hours; settings: Homo sapiens
In short: as §2

[9] = system: RET (LC2/ad-CDC6); experiment: as above
In short: as §2

IC50 [1]	IC50 ([2]; Homo sapiens, A-375, 72 h)	GI50 [3]	IC50 ([4]; Homo sapiens, K562, 72 h)	IC50 [5]	IC50 [6]	IC50 [7]	IC50 [8]	IC50 ([9]; 72 h)	IC50 [2]	IC50 [4]	IC50 [9]	SMILES
444 nM	452 nM	156 nM	< 1 nM	82 nM	2040 nM	32.1 nM						CCN1CCN(Cc2ccc(NC(=O)c3ccc(C)c(C#Cc4cnc5c(Nc6cnn(CCCN(C)C)c6)cccn45)c3)cc2C(F)(F)F)CC1 [Example 33, 3-((8-((1-(3-(dimethylamino)propyl)-1H-pyrazol-4-yl)amino)imidazo[1,2-a]pyridin-3-yl)ethynyl)-N-(4-((4-ethylpiperazin-1-yl)methyl)-3-(trifluoromethyl)phenyl)-4-methylbenzamide]
212 nM	152 nM	54.2 nM	< 1 nM	64 nM	770 nM	63.6 nM	482 nM					Cc1ccc(C(=O)Nc2ccc(CN3CCN(C)[C@H](C)C3)c(C(F)(F)F)c2)cc1C#Cc1cnc2c(Nc3cnn(C)c3)cccn12 [Example 31, (R)—N-(4-((3,4-dimethylpiperazin-1-yl)methyl)-3-(trifluoromethyl)phenyl)-4-methyl-3-((8-((1-methyl-1H-pyrazol-4-yl)amino)imidazo[1,2-a]pyridin-3-yl)ethynyl)benzamide]
> 10000 nM	> 10000 nM	195 nM	16 nM		9520 nM			> 10 nM				Cc1ccc(C(=O)Nc2ccc(CN3CCC(F)(F)CC3)c(C(F)(F)F)c2)cc1C#Cc1cnc2c(Nc3cnn(C)c3)cccn12 [Example 52, N-(4-((4,4-difluoropiperidin-1-yl)methyl)-3-(trifluoromethyl)phenyl)-4-methyl-3-((8-((1-methyl-1H-pyrazol-4-yl)amino)imidazo[1,2-a]pyridin-3-yl)ethynyl)benzamide]
289 nM	229 nM	34.8 nM	< 1 nM		1470 nM	21.3 nM		> 10 nM				CN1CCN(Cc2ccc(NC(=O)c3cccc(C#Cc4cnc5c(Nc6cnn(C)c6)cccn45)c3)cc2C(F)(F)F)CC1 [Example 60, 3-((8-((1-methyl-1H-pyrazol-4-yl)amino)imidazo[1,2-a]pyridin-3-yl)ethynyl)-N-(4-((4-methylpiperazin-1-yl)methyl)-3-(trifluoromethyl)phenyl)benzamide]
1560 nM	3360 nM	234 nM	14 nM	1750 nM	1330 nM	1060 nM	1450 nM	< 100 nM				Cc1ccc(Nc2cccn3c(C#Cc4cc(C(=O)Nc5ccc(CN6CCN(C)CC6)c(C(F)(F)F)c5)ccc4C)cnc23)nc1 [Example 20, 4-methyl-N-(4-((4-methylpiperazin-1-yl)methyl)-3-(trifluoromethyl)phenyl)-3-((8-((5-methylpyridin-2-yl)amino)imidazo[1,2-a]pyridin-3-yl)ethynyl)benzamide]
3060 nM	4460 nM	60.2 nM	< 1 nM	2020 nM	1500 nM	56.9 nM	> 10000 nM	< 1000 nM				Cc1ccc(C(=O)Nc2cccc(C(F)(F)F)c2)cc1C#Cc1cnc2c(Nc3cnn(CCCN(C)C)c3)cccn12 [Example 27, 3-((8-((1-(3-(dimethylamino)propyl)-1H-pyrazol-4-yl)amino)imidazo[1,2-a]pyridin-3-yl)ethynyl)-4-methyl-N-(3-(trifluoromethyl)phenyl)benzamide]
963 nM		102 nM		30 nM	3130 nM		717 nM		292 nM	5 nM	< 100 nM	Cc1ccc(C(=O)Nc2ccc(CN3CCN(C)[C@H](C)C3)c(C(F)(F)F)c2)cc1C#Cc1cnc2c(Nc3cnn(C(C)C)c3)cccn12 [Example 29, (R)—N-(4-((3,4-dimethylpiperazin-1-yl)methyl)-3-(trifluoromethyl)phenyl)-3-((8-((1-isopropyl-1H-pyrazol-4-yl)amino)imidazo[1,2-a]pyridin-3-yl)ethynyl)-4-methylbenzamide]
268 nM	172 nM	58.6 nM	< 1 nM		1170 nM	45.3 nM		> 10 nM				CN1CCN(Cc2ccc(NC(=O)c3ccc(F)c(C#Cc4cnc5c(Nc6cnn(C)c6)cccn45)c3)cc2C(F)(F)F)CC1 [Example 61, 4-fluoro-3-((8-((1-methyl-1H-pyrazol-4-yl)amino)imidazo[1,2-a]pyridin-3-yl)ethynyl)-N-(4-((4-methylpiperazin-1-yl)methyl)-3-(trifluoromethyl)phenyl)benzamide]
320 nM	132 nM	82.4 nM	< 1 nM	89 nM	1870 nM	46 nM						Cc1ccc(NC(=O)c2ccc(CN3CCN(C)CC3)c(C(F)(F)F)c2)cc1C#Cc1cnc2c(Nc3cnn(C)c3)cccn12 [Example 80, N-(4-methyl-3-((8-((1-methyl-1H-pyrazol-4-yl)amino)imidazo[1,2-a]pyridin-3-yl)ethynyl)phenyl)-4-((4-methylpiperazin-1-yl)methyl)-3-(trifluoromethyl)benzamide]
318 nM	140 nM	37.5 nM	< 1 nM	91 nM	320 nM	56.2 nM	803 nM	< 10 nM				CCn1cc(Nc2cccn3c(C#Cc4cc(C(=O)Nc5ccc(CN6CCN(C)CC6)c(C(F)(F)F)c5)ccc4C)cnc23)cn1 [Example 22, 3-((8-((1-ethyl-1H-pyrazol-4-yl)amino)imidazo[1,2-a]pyridin-3-yl)ethynyl)-4-methyl-N-(4-((4-methylpiperazin-1-yl)methyl)-3-(trifluoromethyl)phenyl)benzamide]
456 nM	406 nM	60.4 nM	< 1 nM	107 nM	890 nM	64.2 nM	1150 nM					Cc1ccc(C(=O)Nc2ccc(CN3CCC(N(C)C)C3)c(C(F)(F)F)c2)cc1C#Cc1cnc2c(Nc3cnn(C)c3)cccn12 (stereo not drawn) [Example 32, N-(4-((3-(dimethylamino)pyrrolidin-1-yl)methyl)-3-(trifluoromethyl)phenyl)-4-methyl-3-((8-((1-methyl-1H-pyrazol-4-yl)amino)imidazo[1,2-a]pyridin-3-yl)ethynyl)benzamide]
342 nM	142 nM	39 nM	< 1 nM	73.8 nM	270 nM		917 nM	< 10 nM				CCN1CCN(Cc2ccc(NC(=O)c3ccc(C)c(C#Cc4cnc5c(Nc6cnn(CC)c6)cccn45)c3)cc2C(F)(F)F)CC1 [Example 23, 3-((8-((1-ethyl-1H-pyrazol-4-yl)amino)imidazo[1,2-a]pyridin-3-yl)ethynyl)-N-(4-((4-ethylpiperazin-1-yl)methyl)-3-(trifluoromethyl)phenyl)-4-methylbenzamide]
1010 nM	903 nM	831 nM	< 1 nM	70 nM	9830 nM							Cc1ccc(C(=O)Nc2ccc(CN3CCN(C)[C@H](C)C3)c(C(F)(F)F)c2)cc1C#Cc1cnc2c(Nc3cnn(CCCN(C)C)c3)cccn12 [Example 34, (R)-3-((8-((1-(3-(dimethylamino)propyl)-1H-pyrazol-4-yl)amino)imidazo[1,2-a]pyridin-3-yl)ethynyl)-N-(4-((3,4-dimethylpiperazin-1-yl)methyl)-3-(trifluoromethyl)phenyl)-4-methylbenzamide]
